Measured values taken from patent US6043235A, “11β-aryl-17, 17-spirothiolane-substituted steroids” (Research Triangle Institute, priority 1999, dated 2000).

Legend:
[1] = biological target: T1, Human Progestin Receptor in T47-D Cells (Homo sapiens, UniProt P06401); test: Whole cell receptor binding (competition with 3H-R5020) in T-47D human breast carcinoma cells; settings: for IC50: 50% displacement of 3H-R5020, T-47D cells, overnight incubation; for Relative Binding % Prog.: RBA relative to internal standard progesterone; for Relative Binding % Prog. / Relative Binding % R5020: ratio of concentrations causing 50% displacement, compared in the same assay; for Relative Binding % R5020: RBA relative to reference standard R5020 (promegestone)
T1 construct: The human breast carcinoma (T-47D) cell line was used to assess RBA for progestin receptor; host or cells: T-47D human breast carcinoma cells
T1 sequence (P06401 1-933): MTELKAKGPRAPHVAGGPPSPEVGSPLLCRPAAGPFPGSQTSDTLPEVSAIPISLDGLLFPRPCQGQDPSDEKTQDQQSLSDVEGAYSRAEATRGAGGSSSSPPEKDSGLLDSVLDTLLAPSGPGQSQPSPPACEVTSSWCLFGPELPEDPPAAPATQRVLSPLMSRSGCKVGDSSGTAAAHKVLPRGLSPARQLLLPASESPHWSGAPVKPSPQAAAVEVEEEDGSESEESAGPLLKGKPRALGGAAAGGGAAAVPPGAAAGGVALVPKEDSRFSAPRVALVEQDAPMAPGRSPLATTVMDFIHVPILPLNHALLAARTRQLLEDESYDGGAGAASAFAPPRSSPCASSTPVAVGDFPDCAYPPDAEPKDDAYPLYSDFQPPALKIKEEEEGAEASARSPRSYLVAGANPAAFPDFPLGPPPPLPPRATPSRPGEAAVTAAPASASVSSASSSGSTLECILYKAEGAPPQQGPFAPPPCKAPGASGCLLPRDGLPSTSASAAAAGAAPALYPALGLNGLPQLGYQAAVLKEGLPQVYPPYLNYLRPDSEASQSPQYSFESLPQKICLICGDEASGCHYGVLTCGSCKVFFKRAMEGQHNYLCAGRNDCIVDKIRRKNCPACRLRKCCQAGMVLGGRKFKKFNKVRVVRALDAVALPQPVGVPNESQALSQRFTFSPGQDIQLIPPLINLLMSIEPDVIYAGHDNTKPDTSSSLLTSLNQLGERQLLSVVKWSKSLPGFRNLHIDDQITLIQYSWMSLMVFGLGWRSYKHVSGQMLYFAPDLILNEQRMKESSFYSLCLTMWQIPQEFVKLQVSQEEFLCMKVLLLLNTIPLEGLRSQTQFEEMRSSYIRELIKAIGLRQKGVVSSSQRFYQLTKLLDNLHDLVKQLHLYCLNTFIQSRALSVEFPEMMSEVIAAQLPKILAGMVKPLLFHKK
Experimental: The biological activity of the compounds of this invention was examined by means of whole cell receptor binding studies.
Receptor Binding. The affinity of the compounds for hormone receptors was determined by standard procedures similar to those that have been described, inter alia, by Wagner et al., Proc. Natl. Acad. Sci., 93, 8739-8744 (1996) for COS-1 cells. The human breast carcinoma (T-47D) cell line was used to assess RBA for progestin receptor. The cell line used was obtained from ATCC (American Type Culture Collection) and stored frozen at -135° C. until a week before the assays were conducted. The cells were thawed and cultured to achieve the desired cell number (5 to 7 days on average). They were maintained at 37° C. with growth media until they were 90-100% confluent, at which time they were recovered from the growth flasks and dispersed into individual wells of a 12-well tissue culture plate at a count of 4×10^5 cells in one mL medium per well. After 24 h the cells adhered to the bottom of the 12-well plates. At this point, the receptor binding assay procedure was initiated by the addition of test or standard compounds with 3H-R5020 (promegestone). After incubation overnight, medium was removed, the cells were washed and solubilized and radioactivity was measured by liquid scintillation spectrometry. Nonspecific binding was determined by incubation with excess of unlabeled R5020 and subtracted from total binding to calculate specific binding. The progesterone binding assay was conducted with several concentrations of the reference standard (promegestone, R-5020) and an internal standard (progesterone). These hormones were allowed to compete with tritiated competitor (3H-promegestone, 3H-R5020) to estimate relative binding. Test steroids were tested at three or more concentrations between 0.01 to 1000 nM. If 50% displacement of the 3H-R5020 from the receptor was not achieved by the unknown, higher or lower concentrations were tested, as needed, to obtain that goal. All compounds were tested in duplicate for at least two assays. The percentage of specifically bound 3H-R5020 for each concentration tested was calculated and binding curves were generated by plotting the percentage of specifically bound 3H-R-5020 versus the concentration of the competitor. The relative binding activity (RBA) of the test compounds, relative to the reference standard (R5020) as well as the internal standard, was determined from the ratio of concentrations causing 50% displacement for each unknown and standard and expressed as a percentage value. These concentrations were obtained by graphical interpolation of the plots.

human progestin receptor = settings: % the affinity of progesterone; Smith et al., J. Biol. Chem. 1974; cited from earlier work

Row | IC50 [1] | Relative Binding % Prog. [1] | Relative Binding % R5020 [1] | Structure (SMILES) | affinity relative to progesterone, binding to human progestin receptor (human progestin receptor)
1 | 3.1 nM | 825% | 128% | CN(C)c1ccc([C@H]2C[C@@]3(C)[C@@H](CC[C@@]34CCC[S+]4[O-])[C@@H]3CCC4=CC(=O)CCC4=C32)cc1 (single isomer, unassigned) [Compound 21a, 11β-[4-(N,N-Dimethylamino)phenyl]-1'-oxo-spiro[estr-4,9-diene-17β,2'-thiolane]-3-one] | –
2 | 6.6 nM | 260% | 43% | CN(C)c1ccc([C@H]2C[C@@]3(C)[C@@H](CC[C@@]34CCC[S+]4[O-])[C@@H]3CCC4=CC(=O)CCC4=C32)cc1 (single isomer, unassigned) [Compound 21b, 11β-[4-(N,N-Dimethylamino)phenyl]-1'-oxo-spiro[estr-4,9-diene-17β,2'-thiolane]-3-one] | –
3 | 183 nM | 19% | 2% | CC(=O)c1ccc([C@H]2C[C@@]3(C)[C@@H](CC[C@@]34CCC[S+]4[O-])[C@@H]3CCC4=CC(=O)CCC4=C32)cc1 (single isomer, unassigned) [Compound 22a, 11β-(4-Acetylphenyl)-1'-oxo-spiro[estra-4,9-diene-17β,2'-thiolane]-3-one] | –
4 | 135 nM | 25% | 2% | CC(=O)c1ccc([C@H]2C[C@@]3(C)[C@@H](CC[C@@]34CCC[S+]4[O-])[C@@H]3CCC4=CC(=O)CCC4=C32)cc1 (single isomer, unassigned) [Compound 22b, 11β-(4-Acetylphenyl)-1'-oxo-spiro[estra-4,9-diene-17β,2'-thiolane]-3-one] | –
5 | – | – | – | CSC1CCC2C3CCC4=CC(=O)CCC4(C)C3CCC12C (stereo not shown) [17-thiomethylandrost-4-en-3-one] | 25%
6 | 2.8 nM | 983% | 105% | CN(C)c1ccc([C@H]2C[C@@]3(C)[C@@H](CC[C@@]34CCCS4)[C@@H]3CCC4=CC(=O)CCC4=C32)cc1 [Compound 12, 11β-[4-(N,N-Dimethylamino)phenyl]-spiro[estra-4,9-diene-17β,2'-thiolane]-3-one] | –
7 | 4.1 nM | 651% | 49% | CSc1ccc([C@H]2C[C@@]3(C)[C@@H](CC[C@@]34CCCS4)[C@@H]3CCC4=CC(=O)CCC4=C32)cc1 [Compound 14, 11β-[4-(Methylthio)phenyl]-spiro[estra-4,9-diene-17β,2'-thiolane]-3-one] | –
8 | 13 nM | 199% | 29% | CN(C)c1ccc([C@H]2C[C@@]3(C)[C@@H](CC[C@@]34CCCS4(=O)=O)[C@@H]3CCC4=CC(=O)CCC4=C32)cc1 [Compound 24, 1',1'-Dioxo-11β-[4-(N,N-dimethylamino)phenyl]-spiro[estra-4,9-diene-17β,2'-thiolane]-3-one] | –
